Measurements: patent US20150218212A1, “FLUORINATED EPOXYKETONE-BASED TETRAPEPTIDE COMPOUNDS AND USES THEREOF AS PROTEASOME INHIBITORS” (FLUORINOV PHARMA INC., priority 2012, published 2015)

What was measured:
[1] = target: T1, chymotrypsin-like (CT-L) proteasome activity (Homo sapiens, UniProt P20618+P28074); assay: Proteasome enzymatic activity (tumor cell lysates), CT-L, OCI-AML-2; type: biochemical; settings: OCI-AML-2, mean ± standard deviation
T1 sequence (P28074 60-263): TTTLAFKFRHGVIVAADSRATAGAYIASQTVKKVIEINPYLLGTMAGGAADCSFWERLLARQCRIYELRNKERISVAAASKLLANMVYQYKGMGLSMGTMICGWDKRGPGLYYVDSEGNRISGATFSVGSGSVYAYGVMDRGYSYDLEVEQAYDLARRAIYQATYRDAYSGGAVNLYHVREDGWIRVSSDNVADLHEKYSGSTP
T1 sequence (P20618 29-241): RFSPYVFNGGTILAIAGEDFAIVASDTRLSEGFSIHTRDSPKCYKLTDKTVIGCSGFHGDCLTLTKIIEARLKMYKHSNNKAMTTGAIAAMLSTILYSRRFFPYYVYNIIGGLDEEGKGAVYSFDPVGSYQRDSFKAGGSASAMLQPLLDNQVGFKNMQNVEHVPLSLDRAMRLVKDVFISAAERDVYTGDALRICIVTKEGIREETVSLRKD
Protocol: Human multiple myeloma cell lines 8226, H929, JJN3, KMH11, KMS11, KMS18, LP1, MM1S, OPM2 and U266 were grown in Iscove modified Dulbecco's medium (IMDM). Human leukemia cell lines K562, OCI-AML2 and U937 were cultured in RPMI-1640 medium. Primary peripheral blood mononuclear cells were isolated from multiple myeloma patients by Ficoll density gradient centrifugation and bone marrow aspirates were obtained from multiple myeloma patients at the Princess Margaret Cancer Centre of the University Health Network (UHN; Toronto, ON, Canada). Primary cells were cultured in IMDM. The collection and use of human tissue for this study was approved by the UHN institutional ethics review board. All cell culture media were obtained from the Ontario Cancer Institute Tissue Culture Media Facility (Toronto, ON, Canada) and were supplemented with 10% fetal calf serum, […] (Hyclone, Logan, Utah). All cells were grown in a humidified incubator at 37° C. with 5% CO2.
(§1) Cells were harvested by centrifugation at 1,200 rpm at room temperature. Cell pellets were washed with PBS (phosphate buffered saline) and lysed with assay lysis buffer (50 mM HEPES (N-2-hydroxyethylpiperazine-N′-2-ethanesulfonic acid), pH 7.5; 150 mM NaCl; 1% Triton X-100; 2 mM ATP). Cell lysates were incubated on ice for 30 minutes, mixed by vortex every 5 minutes, and then centrifuged at 12,000 g for 10 minutes. The supernatant was transferred to a 96-well plate. For each assay, 10 μg of total protein were incubated for 1 hour at 37° C. with increasing concentrations (1 nM to 10 μM) of test compound diluted in assay buffer (50 mM tris-HCl (tris(hydroxymethyl)aminomethane-HCl), pH 7.5; 150 mM NaCl). DMSO alone was used as a control in every assay plate. After incubation, a specific fluorogenic proteasome substrate was added to each assay reaction at a final concentration of 40 μM in a total volume of 100 μL. N-Succinyl-Leu-Leu-Val-Tyr-7-amino-4-methylcoumarin (Suc-Leu-Leu-Val-Tyr-AMC) was used for measuring chymotrypsin-like (CT-L) activity, t-butoxycarbonyl-Leu-Arg-Arg-7-amino-4-methylcoumarin (Boc-Leu-Arg-Arg-AMC) for trypsin-like (T-L) activity, and benzyloxycarbonyl-L-leucyl-L-leucyl-L-glutamyl-7-amino-4-methylcoumarin (Z-Leu-Leu-Glu-AMC) for caspase-like (C-L) activity. The excitation wavelength was set at 360 nm and the fluorescence emission wavelength of AMC was detected at 460 nm. The fluorescence of free AMC released during the enzymatic reaction was measured with a SpectraMax M5 fluorescent spectrophotometric plate reader (Molecular Devices, Sunnyvale, Calif.). AMC release rate was measured at 37° C. in a kinetic mode, recording every 5 minutes for 30 minutes. Experiments were performed in triplicate and repeated at least twice.
Table 8 summarizes the data of representative compounds of Formula I for cell viability and CT-L proteasome activity with OCI-AML-2 and KMS-11 cell lines.

[2] = target: T2, proteasome Caspase-like (C-L) activity (Mus musculus, UniProt P70195+Q60692); assay: Pharmacodynamic proteasome activity in murine red blood cells, C-L; type: in vivo, NOD/SCID mice; settings: iv, mice, 2 mg/kg i.v., time 0, read-out: Caspase-like (C-L) mean residual activity relative to vehicle treated controls
T2 construct: RBCs were lysed with assay lysis buffer and incubated on ice for 30 minutes; from tissue; host or cells: red blood cells of NOD/SCID mice
Protocol: as §1
All mouse experiments were performed in accordance with approval from the Ontario Cancer Institute institutional animal review board. Five- to six-week-old male non-obese diabetic/severe combined immunodeficient (NOD/SCID) mice were grouped randomly (n=3 mice per group). Mice were administered vehicle (5% DMSO, 20% Cremophor) or compounds of Formula I at different doses either intravenously or by oral gavage, and venous blood samples (20-50 μL) were collected from each mouse over 24 hours. Blood samples were mixed with heparin (APP Pharmaceuticals; Schaumburg, Ill.) in 0.5 mL tubes in accordance with the manufacturer's instructions. After centrifugal separation at 3,000 g for 10 minutes, red blood cells (RBCs) in the bottom layer were transferred into a new tube and stored at −70° C. until use. RBCs were lysed with assay lysis buffer and incubated on ice for 30 minutes, mixing by vortex every 5 minutes, and then centrifuged at 12,000 g for 10 minutes. The supernatant was transferred to a 96-well plate and proteasome activity was measured as described above for tumor cell lysates.
Proteasome subunit activity (Chymotrypsin-like, Trypsin-like, Caspase-like, CT-L, T-L, C-L, respectively) were monitored over the course of 24 hrs following […] administration of representative compounds of Formula I. NOD/SCID mice were treated with compounds of Formula I (2 mg/kg by iv administration) or vehicle control and carfilzomib for up to 24 hours, as described above. Table 9 summarizes the data on pharmacodynamic activity of representative compounds of Formula I following a dose of 2 mg/kg intravenous (i.v) administration to mice. Data are presented as mean residual activity (SEM) relative to vehicle treated controls.

| Compound | IC50 [1] [nM] | remaining activity at 2 mg/kg [2] [%] |
| --- | --- | --- |
| CC(C)C[C@H](NC(=O)[C@H](COC(F)F)NC(=O)CN1CCOCC1)C(=O)N[C@@H](COC(F)F)C(=O)N[C@@H](CC(C)C)C(=O)[C@@]1(C)CO1 [Example 1, (2S)—N-[(1S)-1-(difluoromethoxymethyl)-2-[[(1S)-3-methyl-1-[(2R)-2-methyloxirane-2-carbonyl]butyl]amino]-2-oxo-ethyl]-2-[[(2S)-3-(difluoromethoxy)-2-[(2-morpholinoacetyl)amino]propanoyl]amino]-4-methyl-pentanamide] | 39 ± 1.24 | 100 |
| CC(C)C[C@H](NC(=O)[C@H](COC(F)F)NC(=O)CN1CCOCC1)C(=O)N[C@@H](Cc1ccccc1)C(=O)N[C@@H](CC(C)C)C(=O)[C@@]1(C)CO1 [Example 2, (2S)-N-[(1S)-1-benzyl-2-[[(1S)-3-methyl-1-[(2R)-2-methyloxirane-2-carbonyl]butyl]-amino]-2-oxo-ethyl]-2-[[(2S)-3-(difluoromethoxy)-2-[(2-morpholinoacetyl)amino]propanoyl]amino]-4-methyl-pentanamide] | 41.2 ± 3.19 | 100 |
| CC(C)C[C@H](NC(=O)[C@H](COC(F)F)NC(=O)CN1CCOCC1)C(=O)N[C@@H](Cc1ccccc1)C(=O)N[C@@H](Cc1ccccc1)C(=O)[C@@]1(C)CO1 [Example 3, (2S)-N-[(1S)-1-benzyl-2-[[(1S)-1-benzyl-2-[(2R)-2-methyloxiran-2-yl]-2-oxo-ethyl]amino]-2-oxo-ethyl]-2-[[(2S)-3-(difluoromethoxy)-2-[(2-morpholinoacetyl)-amino]propanoyl]amino]-4-methyl-pentan-amide] | 30 ± 2.44 | 100 |
| CC(C)C[C@H](NC(=O)[C@H](COC(F)F)NC(=O)CN1CCOCC1)C(=O)N[C@@H](COC(F)F)C(=O)N[C@@H](Cc1ccccc1)C(=O)[C@@]1(C)CO1 [Example 4, (2S)-N-[(1S)-2-[[(1S)-1-benzyl-2-[(2R)-2-methyloxiran-2-yl]-2-oxo-ethyl]amino]-1-(difluoromethoxymethyl)-2-oxo-ethyl]-2-[[(2S)-3-(difluoromethoxy)-2-[(2-mor-pholinoacetyl)amino]propanoyl]amino]-4 methyl-pentanamide] | 20.9 ± 0.91 | 100 |
| CC(C)C[C@H](NC(=O)[C@H](COC(F)F)NC(=O)[C@H](COC(F)F)NC(=O)[C@H](CCc1ccccc1)NC(=O)CN1CCOCC1)C(=O)[C@@]1(C)CO1 [Example 7, (2S)-N-[(1S)-1-(difluoromethoxymethyl)-2-[[(1S)-1-(difluoromethoxymethyl)-2-[[(1S)-3-methyl-1-[(2R)-2-methyloxirane-2-carbo-nyl]butyl]amino]-2-oxo-ethyl]amino]-2-oxo-ethyl]-2-[(2-morpholinoacetyl)amino]-4-phenyl-butanamide] | 24.7 ± 9.6 | 100 |
| CC(C)C[C@H](NC(=O)[C@H](Cc1ccccc1)NC(=O)[C@H](COC(F)F)NC(=O)[C@H](COC(F)F)NC(=O)CN1CCOCC1)C(=O)[C@@]1(C)CO1 [Example 11, (2S)-2-[[(2S)-3-(difluoromethoxy)-2-[[(2S)-3-(difluoromethoxy)-2-[(2-morpholinoacetyl)-amino]propanoyl]amino]propanoyl]amino]-N-[(1S)-3-methyl-1-[(2R)-2-methyloxirane-2-carbonyl]butyl]-3-phenyl-propanamide] | 30.5 ± 3.9 | 100 |
| CC(C)C[C@H](NC(=O)[C@H](COC(F)F)NC(=O)[C@H](COC(F)F)NC(=O)[C@H](COC(F)F)NC(=O)CN1CCOCC1)C(=O)[C@@]1(C)CO1 [Example 17, (2S)-3-(difluoromethoxy)-N-[(1S)-1-(difluoromethoxymethyl)-2-[[(1S)-1-(difluoro-methoxymethyl)-2-[[(1S)-3-methyl-1-[(2R)-2-methyloxirane-2-carbonyl]butyl]amino]-2-oxo-ethyl]amino]-2-oxo-ethyl]-2-[(2-mor-pholinoacetyl)amino]-propanamide] | 58.3 ± 3.11 | 100 |
